Patent US20220033784A1 (priority 2020, published 2022)
Like-named read-outs stand apart in the source and are kept apart here.

Assays:
[1] = system: HH cells (IL-2 CD122/CD132 (β/γ) receptor complex); experiment: pSTAT5 ELISA in HH cells; type: cell-based; settings: for Selectivity HH/iTreg: higher value = greater selectivity for HH cells; for EC50: pSTAT5 level 50% of maximum, InstantOne ELISA, read-out: EC50 HH T cell
Description: (§1) The ability of the IL-2 variants to activate HH cells and iTregs was measured by monitoring relative changes in phosphorylated STAT5 (pSTAT5) in response to treatment of the cells with the IL-2 variants. pSTAT5 is known to be a downstream consequence of IL-2 signaling. HH T cells (ATCC CRL-2105) are a line of T cells that lack the alpha chain of the IL-2 receptor complex, but that contain the beta and gamma chains of the IL-2 receptor complex. iTreg cells were prepared from Fresh Leuko Paks obtained from […] Technologies (CAT #70500.1, Donor #D001003551).
(§2) For IL-2 activation, the HH cells and iTreg cells were plated at 2*10e6 cells/well in 50 ul serum-free RPMI 1640 media (Gibco), and allowed to rest at 37° C. After resting, cells were treated the IL-2 molecules listed above, and cells were then pelleted by centrifugation.
(§3) Following treatment with the IL-2 molecules, cell induction status was evaluated by the InstantOne ELISA pSTAT5 detection kit (Invitrogen).

[2] = system: iTreg cells (IL-2 CD25/CD122/CD132 (α/β/γ) receptor complex); experiment: pSTAT5 ELISA in iTreg cells; type: cell-based; settings: pSTAT5 level 50% of maximum, InstantOne ELISA; read-out: EC50 iTreg cell
Description: as §1, §2, §3

[3] = system: Treg cells; experiment: pSTAT5 flow cytometry in hPBMCs: Treg cells; type: cell-based, human; settings: pSTAT5 MFI in hPBMCs, 20 minutes at 37° C.; read-out: EC50 Treg cell
Description: (§4) In this experiment, the ability of the IL-2 variants to activate CD8 T cells, NK cells, and Treg cells was measured by monitoring relative changes in pSTAT5 in response to treatment of the cells with the IL-2 variants. The IL-2 variants tested in this experiment were each fused to a human IgG Fc domain as described in Example 15. […]; Blood from healthy volunteers was taken and hPBMCs were isolated using a ficoll-paque (GE Healthcare) gradient, washed with PBS to remove platelets, and cleared of red blood cells using ACK lysis buffer (Gibco). Cells were then plated at 1*10e6 cells/well in 90 uL serum-free RPMI 1640 media (Gibco) and allowed to rest for 2-4 hours at 37° C. After resting, cells were treated the IL-2 molecules listed above (10 uL), at the indicated concentrations for 20 minutes at 37° C., and 25 uL 20% PFA was immediately added with gentle pipetting. Cells were then pelleted by centrifugation and aspirated (400 RCF, 7 minutes).
(§5) Phosflow Perm Buffer III (BD Biosciences) was added (200 uL), and the cells were mixed gently by pipetting up and down once to prevent clumping. Cells were then washed twice with 200 uL FACS buffer followed by pelleting by centrifugation (400 RCF, 7 minutes). Cells were in resuspended in 200 uL FACS buffer and incubated with the antibodies in Table D and Table E per standard procedure then suspended in 200 uL FACS buffer for FACS analysis. Data was analyzed using FlowJo v10 software.

[4] = system: CD8 T cells; experiment: pSTAT5 flow cytometry in hPBMCs: CD8 T cells; type: cell-based, human; settings: for Selectivity CD8/Treg: larger numbers = greater selectivity for CD8 T cells over Treg cells; for EC50: pSTAT5 MFI in hPBMCs, 20 minutes at 37° C., read-out: EC50 CD8 T cell
Description: as §4, §5

[5] = system: NK cells; experiment: pSTAT5 flow cytometry in hPBMCs: NK cells; type: cell-based, human; settings: for Selectivity NK/Treg: larger numbers = greater selectivity for NK cells over Treg cells; for EC50: pSTAT5 MFI in hPBMCs, 20 minutes at 37° C., read-out: EC50 NK cell
Description: as §4, §5

[6] = target: T1, human intermediate-affinity IL-2 receptor complex, IL-2 CD122/CD132 (β/γ), on cells (human, UniProt P14784 27-551; P31785 23-369); experiment: cell-based or functional assay
T1 sequence (looked up) 1: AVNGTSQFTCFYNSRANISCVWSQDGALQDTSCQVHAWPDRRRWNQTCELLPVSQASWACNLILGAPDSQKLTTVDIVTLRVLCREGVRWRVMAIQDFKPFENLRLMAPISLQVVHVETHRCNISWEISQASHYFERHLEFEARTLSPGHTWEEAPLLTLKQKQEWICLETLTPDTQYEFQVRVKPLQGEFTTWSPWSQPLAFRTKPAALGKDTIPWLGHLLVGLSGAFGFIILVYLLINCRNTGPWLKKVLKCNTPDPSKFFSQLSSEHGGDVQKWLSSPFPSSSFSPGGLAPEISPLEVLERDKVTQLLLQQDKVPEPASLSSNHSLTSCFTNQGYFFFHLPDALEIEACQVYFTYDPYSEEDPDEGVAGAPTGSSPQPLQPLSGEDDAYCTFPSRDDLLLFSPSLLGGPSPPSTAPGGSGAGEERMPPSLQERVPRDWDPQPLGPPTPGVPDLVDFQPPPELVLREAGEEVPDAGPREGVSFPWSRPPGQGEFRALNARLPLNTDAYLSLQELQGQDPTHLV
T1 sequence (looked up) 2: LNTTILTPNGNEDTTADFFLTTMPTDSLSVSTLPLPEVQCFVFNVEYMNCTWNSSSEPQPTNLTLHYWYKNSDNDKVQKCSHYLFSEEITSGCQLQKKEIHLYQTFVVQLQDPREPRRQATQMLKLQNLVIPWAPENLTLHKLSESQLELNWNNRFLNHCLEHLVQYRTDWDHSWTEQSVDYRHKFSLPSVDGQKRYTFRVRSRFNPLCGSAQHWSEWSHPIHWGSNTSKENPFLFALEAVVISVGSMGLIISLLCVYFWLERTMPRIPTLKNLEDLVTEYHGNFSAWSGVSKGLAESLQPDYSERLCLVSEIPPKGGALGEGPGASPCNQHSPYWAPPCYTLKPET

[7] = target: T2, human high-affinity IL-2 receptor complex, IL-2 CD25/CD122/CD132 (α/β/γ), on cells (human, UniProt P01589 22-272; P14784 27-551; P31785 23-369); experiment: cell-based or functional assay
T2 sequence (looked up) 1: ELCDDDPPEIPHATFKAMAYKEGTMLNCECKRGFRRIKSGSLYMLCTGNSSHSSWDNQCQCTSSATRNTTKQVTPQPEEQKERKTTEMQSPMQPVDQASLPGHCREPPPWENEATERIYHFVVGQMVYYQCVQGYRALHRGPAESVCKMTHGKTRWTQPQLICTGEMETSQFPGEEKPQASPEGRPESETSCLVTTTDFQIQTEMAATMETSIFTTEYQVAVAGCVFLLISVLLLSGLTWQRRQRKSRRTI
T2 sequence (looked up) 2: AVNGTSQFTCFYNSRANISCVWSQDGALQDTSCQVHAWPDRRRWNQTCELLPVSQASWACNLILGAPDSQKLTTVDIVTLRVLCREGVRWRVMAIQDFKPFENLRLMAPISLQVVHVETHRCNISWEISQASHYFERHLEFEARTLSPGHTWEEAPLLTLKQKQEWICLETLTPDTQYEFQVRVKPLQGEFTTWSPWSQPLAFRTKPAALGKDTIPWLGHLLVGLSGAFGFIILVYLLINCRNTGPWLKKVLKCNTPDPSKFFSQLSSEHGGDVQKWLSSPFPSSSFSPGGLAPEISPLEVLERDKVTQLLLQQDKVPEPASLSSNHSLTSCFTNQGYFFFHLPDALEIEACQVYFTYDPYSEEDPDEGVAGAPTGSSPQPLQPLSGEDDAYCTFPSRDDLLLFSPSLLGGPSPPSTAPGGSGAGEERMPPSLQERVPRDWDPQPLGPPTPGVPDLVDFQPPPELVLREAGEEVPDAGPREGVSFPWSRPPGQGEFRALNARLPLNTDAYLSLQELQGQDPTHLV
T2 sequence (looked up) 3: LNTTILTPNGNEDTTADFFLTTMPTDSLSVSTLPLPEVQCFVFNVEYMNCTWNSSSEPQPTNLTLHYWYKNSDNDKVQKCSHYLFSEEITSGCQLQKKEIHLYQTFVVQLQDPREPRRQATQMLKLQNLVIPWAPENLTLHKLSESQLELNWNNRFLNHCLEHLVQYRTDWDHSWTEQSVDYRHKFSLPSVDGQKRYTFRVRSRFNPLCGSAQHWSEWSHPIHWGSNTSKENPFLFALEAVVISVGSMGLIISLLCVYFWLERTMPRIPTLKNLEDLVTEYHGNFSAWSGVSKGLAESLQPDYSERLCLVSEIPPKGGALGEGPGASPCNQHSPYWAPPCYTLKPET

[8] = target: T1, human intermediate-affinity IL-2 …; experiment: cell-based or functional assay; remark: listed apart in the source
[9] = target: T1, human intermediate-affinity IL-2 …; experiment: cell-based or functional assay; remark: listed apart in the source
[10] = target: T2, human high-affinity IL-2 receptor …; experiment: cell-based or functional assay; remark: listed apart in the source
[11] = target: T3, human IL-2 receptor beta (IL-2Rβ, CD122), purified soluble (human, UniProt P14784 27-240); experiment: SPR (Biacore 8K, 25 C), CD122 amine-coupled on CM5 chip, Fc-IL2 variant as analyte, 1:1 Langmuir fit
T3 construct: also called hILR2β (CD122); human IL-2Rβ
T3 sequence (looked up): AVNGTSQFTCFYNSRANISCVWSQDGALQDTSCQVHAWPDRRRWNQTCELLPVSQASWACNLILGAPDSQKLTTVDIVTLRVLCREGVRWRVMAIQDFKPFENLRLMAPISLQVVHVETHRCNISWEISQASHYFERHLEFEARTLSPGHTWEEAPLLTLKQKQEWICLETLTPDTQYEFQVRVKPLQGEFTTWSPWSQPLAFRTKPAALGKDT

## Fc-IL2-L72N:Q74T
[1]
  Selectivity HH/iTreg: 8.4 × 10^−4
  EC50: 47.6 nM
[2]
  EC50: 0.04 nM
[3]
  EC50: 2.29 nM
[4]
  Selectivity CD8/Treg: 0.1
  EC50: 22.1 nM
[5]
  Selectivity NK/Treg: 0.98
  EC50: 2.33 nM

## Fc-IL2-T41N:K43T
[1]
  Selectivity HH/iTreg: 2.69 × 10^−4
  EC50: 37.2 nM
[2]
  EC50: 0.01 nM
[3]
  EC50: 2.13 nM
[4]
  Selectivity CD8/Treg: 0.07
  EC50: 31.2 nM
[5]
  Selectivity NK/Treg: 0.7
  EC50: 3.05 nM

## Fc-IL2-E62N:K64T
[1]
  Selectivity HH/iTreg: 3.84 × 10^−4
  EC50: 52.1 nM
[2]
  EC50: 0.02 nM
[3]
  EC50: 2.26 nM
[4]
  Selectivity CD8/Treg: 0.09
  EC50: 25.5 nM
[5]
  Selectivity NK/Treg: 0.62
  EC50: 3.65 nM

## Fc-IL2-K35N
[3]
  EC50: 0.07 nM
[4]
  Selectivity CD8/Treg: 0.00284
  EC50: 24.6 nM
[5]
  Selectivity NK/Treg: 0.0276
  EC50: 2.54 nM

## Fc-IL2-R38N:L40T
[1]
  Selectivity HH/iTreg: 6.75 × 10^−4
  EC50: 163 nM
[2]
  EC50: 0.11 nM
[3]
  EC50: 7.89 nM
[4]
  Selectivity CD8/Treg: 0.3
  EC50: 26.5 nM
[5]
  Selectivity NK/Treg: 2.58
  EC50: 3.06 nM

B1: Fc-IL2-K43N:Y45T-E62N:K64T (Fc fusion)
chain: GGGGSGGGGSAPTSSSTKKTQLQLEHLLLDLQMILNGINNYKNPKLTRMLTFNFTMPKKATELKHLQCLEENLTPLEEVLNLAQSKNFHLRPRDLISNINVIVLELKGSETTFMCEYADETATIVEFLNRWITFCQSIISTLT
[6]
  EC50 (read off the curve), pSTAT5 MFI in NK cells of hPBMC: ~6 nM
[7]
  EC50, pSTAT5 induction in iTreg cells (ELISA): 3.07 nM
[8]
  EC50, pSTAT5 induction in HH T cells (ELISA): 66.2 nM

B2: Fc-IL2-R38N:L40T-L72N:Q74T (Fc fusion)
chain: GGGGSGGGGSAPTSSSTKKTQLQLEHLLLDLQMILNGINNYKNPKLTNMTTFKFYMPKKATELKHLQCLEEELKPLEEVLNNATSKNFHLRPRDLISNINVIVLELKGSETTFMCEYADETATIVEFLNRWITFCQSIISTLT
[9]
  EC50 (read off the curve), pSTAT5 MFI in NK cells of hPBMC: ~6 nM
[10]
  EC50 (read off the curve), pSTAT5 MFI in Treg cells of hPBMC: ~20 nM

B3: Fc-IL2-R38N:L40T-E62N:K64T (Fc fusion)
chain: GGGGSGGGGSAPTSSSTKKTQLQLEHLLLDLQMILNGINNYKNPKLTNMTTFKFYMPKKATELKHLQCLEENLTPLEEVLNLAQSKNFHLRPRDLISNINVIVLELKGSETTFMCEYADETATIVEFLNRWITFCQSIISTLT
[9]
  EC50 (read off the curve), pSTAT5 MFI in NK cells of hPBMC: ~6 nM
[10]
  EC50 (read off the curve), pSTAT5 MFI in Treg cells of hPBMC: ~20 nM

B4: Fc-IL2-K43N:Y45T-L72N:Q74T (Fc fusion)
chain: GGGGSGGGGSAPTSSSTKKTQLQLEHLLLDLQMILNGINNYKNPKLTRMLTFNFTMPKKATELKHLQCLEEELKPLEEVLNNATSKNFHLRPRDLISNINVIVLELKGSETTFMCEYADETATIVEFLNRWITFCQSIISTLT
[11]
  Kd: 2620 nM
  koff: 0.235 s⁻¹
  kon: 89900 M⁻¹ s⁻¹
[6]
  EC50 (read off the curve), pSTAT5 MFI in NK cells of hPBMC: ~6 nM
[7]
  EC50, pSTAT5 induction in iTreg cells (ELISA): 4.49 nM
[8]
  EC50, pSTAT5 induction in HH T cells (ELISA): 65.2 nM

B5: Fc-IL2-K43N:Y45T-E62N:K64T (protein)
chain: APTSSSTKKTQLQLEHLLLDLQMILNGINNYKNPKLTRMLTFNFTMPKKATELKHLQCLEENLTPLEEVLNLAQSKNFHLRPRDLISNINVIVLELKGSETTFMCEYADETATIVEFLNRWITFCQSIISTLT
[1]; Table C
  relative selectivity for HH cells vs iTreg cells among the tested molecules: greatest relative selectivity
[1]
  Selectivity HH/iTreg: 4.64 × 10^−2
  EC50: 66.2 nM
[2]
  EC50: 3.07 nM
